Test results as given in article PMC7155171, “Probing the Open Global Health Chemical Diversity Library for Multistage-Active Starting Points for Next-Generation Antimalarials” (ACS Infectious Diseases, 2020).
Where two headings read alike, the source gives them in different places.

Legend:
[1] = system: P. falciparum Dd2 (PfLuc) line expressing firefly luciferase, asexual blood stage; test: microbe, parasite or virus in culture; format: cell-based, Plasmodium falciparum; details: Plasmodium falciparum
P. falciparum Dd2 = test: SYBR green I asexual blood stage proliferation assay (96 h); format: cell-based, Plasmodium falciparum; details: Plasmodium falciparum, DD2, 11-pt dose response, 96hr
[2] = DD2, read-out: CDD P. falciparum Luciferase ABS 11-pt Reconfirmation Dose Response (48hr): IC50 (μM), 11-pt dose response, 48hr
[3] = DD2, 8-pt dose response, 96hr, read-out: CDD P. falciparum Luciferase ABS 8-pt Reconfirmation Dose Response (96hr): IC50
[4] = DD2, 8-pt dose response, 96hr, read-out: CDD P. falciparum Luciferase ABS 8-pt Reconfirmation Dose Response (96hr): Maximum inhibition (%)
[5] = DD2, 11-pt dose response, 48hr, read-out: CDD P. falciparum Luciferase ABS 11-pt Reconfirmation Dose Response (48hr): Maximum inhibition (%)
[6] = DD2, 11-pt dose response, 96hr, read-out: CDD P. falciparum Luciferase ABS 11-pt Reconfirmation Dose Response (96hr): IC50
[7] = DD2, 11-pt dose response, 96hr, read-out: CDD P. falciparum Luciferase ABS 11-pt Reconfirmation Dose Response (96hr): Maximum inhibition (%)
[8] = Sybr Green I, read-out: CDD P. falciparum Sybr Green I ABS 11-pt Reconfirmation Dose Response (96hr): IC50
[9] = Sybr Green I, read-out: CDD P. falciparum Sybr Green I ABS 11-pt Reconfirmation Dose Response (96hr): Maximum inhibition (%)
[10] = DD2, read-out: P. falciparum Luciferase ABS 11-pt Reconfirmation Dose Response (48hr): IC50, 11-pt dose response, 48hr
[11] = DD2, 8-pt dose response, 96hr, read-out: P. falciparum Luciferase ABS 8-pt Reconfirmation Dose Response (96hr): IC50
[12] = DD2, 8-pt dose response, 96hr, read-out: P. falciparum Luciferase ABS 8-pt Reconfirmation Dose Response (96hr): Maximum inhibition (%)
[13] = DD2, 11-pt dose response, 48hr, read-out: P. falciparum Luciferase ABS 11-pt Reconfirmation Dose Response (48hr): Maximum inhibition (%)
[14] = DD2, 11-pt dose response, 96hr, read-out: P. falciparum Luciferase ABS 11-pt Reconfirmation Dose Response (96hr): IC50
[15] = DD2, 11-pt dose response, 96hr, read-out: P. falciparum Luciferase ABS 11-pt Reconfirmation Dose Response (96hr): Maximum inhibition (%)
[16] = read-out: P. falciparum Sybr Green I ABS 11-pt Reconfirmation Dose Response (96hr): IC50
[17] = read-out: P. falciparum Sybr Green I ABS 11-pt Reconfirmation Dose Response (96hr): Maximum inhibition (%)
[18] = 96 h incubation, Dd2 luciferase, read-out: 96 hour Pfluc IC50

SMILES | IC50 [1, 2] [µM] | IC50 [1, 3] [µM] | Emax [1, 4] [%] | Emax [1, 5] [%] | IC50 [1, 6] [µM] | Emax [1, 7] [%] | IC50 (P. falciparum Dd2; [8]) [µM] | Emax (P. falciparum Dd2; [9]) [%] | IC50 [1, 10] [µM] | IC50 [1, 11] [µM] | Emax [1, 12] [%] | Emax [1, 13] [%] | IC50 [1, 14] [µM] | Emax [1, 15] [%] | IC50 (P. falciparum Dd2; [16]) [µM] | Emax (P. falciparum Dd2; [17]) [%] | IC50 [1, 18] [µM]
CN(Cc1cc(F)cc2cccnc12)CC1CCN(CCO)CC1 [DDD01063806] | 3.63 | 0.92 | 93.1 | 96.1 | 2.11 | 100 | 1.11 | 93.2 |  |  |  |  |  |  |  |  | 
CN(Cc1cc(Cl)cc2cccnc12)CC1CCN(CCO)CC1 [DDD01063807] | 2.2 | 0.36 | 94.1 | 97.5 | 1.42 | 100 | 0.584 | 95.8 |  |  |  |  |  |  |  |  | 
c1cc(N2CCC(CN3CCOCC3)CC2)c2sccc2n1 [DDD01064806] |  |  |  |  |  |  |  |  | 1.38 | 1.43 | 94.6 | 99.7 | 1.12 | 100 | 1.15 | 100 | 
CNC(=O)CCN(C)CC1(c2ccc(Br)cc2)CC1 [DDD01064880] | 5.21 | 0.54 |  | 64.4 | 4.63 | 88.9 | 6.59 | 73.3 |  |  |  |  |  |  |  |  | 
Cc1cc(C)c(CNCC(O)c2ccc(F)c(F)c2)c(C)c1 (stereo not drawn) [DDD01065539] | 0.316 | 0.15 | 96.6 | 97.4 | 0.143 | 100 | 0.312 | 99.5 |  |  |  |  |  |  |  |  | 
CC(NCCc1nccn1Cc1ccccc1)c1ccsc1 (stereo not drawn) [DDD01065612] | 4.05 | 1.09 | 87.3 | 68.1 | 0.666 | 88.3 | 0.96 | 77.4 |  |  |  |  |  |  |  |  | 
CN1CCC(O)(CNCc2ccc(F)c(C(F)(F)F)c2)CC1 [DDD01065665] | > 12.5 | 0.71 | 90.5 | 33.7 | 4.45 | 88.8 | 3.17 | 86.1 |  |  |  |  |  |  |  |  | 
CC1(C)CN(C(CNC2=NCCN2)c2ccc(Cl)cc2)CCO1 (stereo not drawn) [DDD01066238] | 0.786 | 0.55 | 80.3 | 64.5 | 3.52 | 81.2 | 3.75 | 50.5 |  |  |  |  |  |  |  |  | 
O=C(CC1CCCC1)NCCNCc1cccc2c1OCCO2 [DDD01067280] | > 12.5 | 1.09 | 84.7 | 64.2 | > 1.39 | 89.2 | > 4.16 | 67 |  |  |  |  |  |  |  |  | 
c1cc2c(cc1C1(CNC3=NCCN3)CCCC1)OCCO2 [DDD01067440] | 8.77 | 0.57 | 86.8 | 68.7 | 1.63 | 92 | 1.24 | 65.6 |  |  |  |  |  |  |  |  | 
Clc1ccc(C2(CNC3=NCCN3)CC2)cc1 [DDD01067441] | 1.96 | 0.55 | 95.1 | 96.7 | 0.613 | 99.9 | 0.76 | 101 |  |  |  |  |  |  |  |  | 
Clc1ccc(C2(CNC3=NCCN3)CCCC2)cc1 [DDD01067443] | 5.56 | 0.25 | 94.9 | 90 | 0.995 | 98.3 | 2.26 | 98.5 |  |  |  |  |  |  |  |  | 1
Clc1ccc(C2(CNC3=NCCN3)CCCCC2)cc1 [DDD01067446] | 2.9 | 0.22 | 96.3 | 97.1 | 0.731 | 99.6 | 1.29 | 99.8 |  |  |  |  |  |  |  |  | 
Fc1ccc(C2(CNC3=NCCN3)CCCC2)cc1 [DDD01067448] |  |  |  |  |  |  |  |  | 6.73 | 1.43 | 88.3 |  | 1.18 | 95.9 | 3.3 | 94.1 | 
CCN1CCCN(S(=O)(=O)c2cc3ccccc3o2)CC1 [DDD01067562] | 8.55 | 0.58 | 87.2 | 65 | 1.34 | 85.4 | 1.46 | 73.1 |  |  |  |  |  |  |  |  | 
O=C(Nc1nccs1)C1CCCN1Cc1ccccn1 (stereo not drawn) [DDD01068868] | 0.884 | 0.3 |  | 91.2 | 0.303 | 99.3 | 0.888 | 96.4 |  |  |  |  |  |  |  |  | 
Cc1cccc(OC(C)C(=O)NCC2(N(C)C)CCCC2)c1 (stereo not drawn) [DDD01069466] | > 12.5 | 0.95 |  | 46.7 | 2.5 | 85.7 | 2.14 | 64.8 |  |  |  |  |  |  |  |  | 
CN1CCN(CC(NCc2ccc(F)c(F)c2)c2ccccc2)CC1 (stereo not drawn) [DDD01069631] | 5.37 | 0.58 | 89.5 | 78.3 | 0.913 | 94.6 | 4.41 | 85.4 |  |  |  |  |  |  |  |  | 0.91
CC(C)(C)C(=O)NCCNCc1ccc(Cl)c2cccnc12 [DDD01070293] | > 12.5 | 1.05 | 82 | 37.6 | 1.51 | 83.4 | 2.25 | 64.4 |  |  |  |  |  |  |  |  | 
CCN1CCN(c2ccc(F)cc2C(C)NCc2ccccn2)CC1 (stereo not drawn) [DDD01070491] | > 12.5 | 0.83 | 82.8 | 53 | 1.9 |  | > 4.16 | 73.8 |  |  |  |  |  |  |  |  | 
CCN1CCN(c2ccc(F)cc2C(C)NCc2cscn2)CC1 (stereo not drawn) [DDD01070576] |  |  |  |  |  |  |  |  | > 12.5 | 1.25 | 87.1 | 47.9 | 2.44 |  | 7.18 | 78.2 | 
Cc1cc(Cl)ccc1S(=O)(=O)NCC(C)N1CCN(C)CC1 (stereo not drawn) [DDD01071406] |  |  |  |  |  |  |  |  | 6.35 | 1.66 | 87.3 | 56.6 | 4.93 | 86.6 | > 4.16 |  | 
